# Laboratory results as given in US20250122181A1, “BENZIMIDAZOLES AS MODULATORS OF IL-17” (Janssen Pharmaceutica NV, priority 2021, published 2025).
# What was measured:
# [1] = system: IL-17A-induced G-CSF production in human normal keratinocyte (NHK); test: NHK Assay: IL-17A-induced G-CSF production in human normal keratinocyte; type: cell-based; conditions: Homo sapiens, Keratinocyte, 24 h, IL-17A 5 ng/mL, simple average if tested more than once
# Method: IL-17A acts directly on keratinocytes through binding to dimeric receptor IL-17RA/RC and drives the production of a number of inflammatory mediators known to be elevated in psoriasis lesional tissue. IL-17A small molecule inhibitors that block the IL-17A to interact with IL-17R would inhibit the IL-17A signaling in its targeted cells such as keratinocytes. The compound functional activity is evaluated for its impact on IL-17A-induced G-CSF production in human normal keratinocyte (NHK).
# Adult normal human keratinocytes are cultured in keratinocyte growth medium (Lonza) in a flask till reaching ˜90% confluence, then cells are transferred to a 384-well plate at density of 3000-4000 cell/well. Recombinant human IL-17A (Gibco PHC9174) is pre-incubated with titrated compound or DMSO for 1 h at rt then added to the cell culture plate. The final concentration of IL-17A is 5 ng/mL and DMSO is 0.2%, in the culture containing 5% FBS. Cells are cultured/treated for 24 h at 37° C. Supernatants are collected and G-CSF production is measured through HTRF technology using Human G-CSF Kit (CisBio). G-CSF concentration was extrapolated from the standard curve and IC50 is determined using GraphPad Prism. Cell viability is also evaluated using CellTiter-Glo kit (Promega) and effect of compound on cell viability is compared to DMSO control.
# [2] = molecular target: IL-17A(FLAG-Tagged): IL-17RA(His-Tagged) (Homo sapiens, UniProt Q16552, K93Q); test: IL-17A(FLAG-Tagged): IL-17RA(His-Tagged) Binding Disruption Eu-HTRF Assay, Protocol 1; conditions: Protocol 1, FLAG tagged IL-17A 2.5 nM; simple average if tested more than once
# Source text: An antibody directed against the FLAG tag of IL-17A (SEQ ID NO: 1) is labeled with the HTRF donor chromophore (Europium-cryptate). IL-17A is present as a dimer that is “locked into” this quaternary structure due to the formation of loop-spanning […] disulfide bridges. The construct of IL-17RA used in the assay excludes the […] portion of the receptor and is fused to a C-terminal 10×His tag (SEQ ID NO:2). An antibody directed against the His tag of the IL-17RA chimera is labeled with the HTRF acceptor chromophore (“D2”). The fluorescence-resonance energy transfer (FRET) depends on the vicinity of the donor chromophore to the acceptor, and interruption of the binding between the IL-17A and IL-17RA causes the reduction/loss of FRET. Therefore, this assay allows to evaluate the compound effect on the binding IL-17A and IL-17RA by monitoring the fluorescence intensity of donor vs acceptor. The assay was run using either Protocol 1 or Protocol 2 as described below.
# Protocol 1. 40 nl of 2-fold serial diluted compound solution for total 22 dilution points is added into each well of a 1536-well, white, low-volume, non-binding plate (Greiner #782904), then 2 μl of FLAG tagged IL-17A at 2× final concentration (2.5 nM) in solution of PBS+0.01% Triton-X100 is added to each well. The assay plate is briefly centrifuged then incubated for 1 h at rt. A mixed solution is prepared containing 2×5 nM 10HIS×IL-17RA, 2×2.5 nM Eu-anti-FLAG (CISBIO), 2×5 nM D2-anti-HIS (CISBIO) in PBS+0.01% Triton-X100+200 mM Potassium Fluoride (Sigma 60238) and 2 μl of mix is added to each well of the assay plate. The plate is briefly centrifuged then incubated for 2 h at rt. The HTRF intensities at the wavelength of donor (620 nm) and acceptor (665 nm) are measured using BMG Pherastar. The ratio between intensities at two wavelengths is calculated and plotted against the compound concentration and the data is fitted to a one-site competition model to yield IC50 of the compound.
# UniProt Q16552, sequence (Q16552 with tags, fused parts or gaps K93Q): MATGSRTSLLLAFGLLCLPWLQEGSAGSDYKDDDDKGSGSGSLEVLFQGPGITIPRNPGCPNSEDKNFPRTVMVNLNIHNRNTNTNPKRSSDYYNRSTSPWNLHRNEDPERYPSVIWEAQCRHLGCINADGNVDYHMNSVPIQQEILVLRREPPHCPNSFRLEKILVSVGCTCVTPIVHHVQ
Structure (SMILES),IC50 [1],IC50 [2]
"CC(C)(OC[C@H](NC(=O)c1nonc1C1CC1)c1nc2nc(CN3C[C@H](C(F)(F)F)NC3=O)ccc2[nH]1)C(F)(F)F (relative stereo) [Example 38, 4-Cyclopropyl-N—((R*)-1-(5-(((R*)-2-oxo-4-(trifluoromethyl)imidazolidin-1-yl)methyl)-1H-imidazo[4,5-b]pyridin-2-yl)-2-((1,1,1-trifluoro-2-methylpropan-2-yl)oxy)ethyl)-1,2,5-oxadiazole-3-carboxamide]",< 50 nM,< 50 nM
"CC(C)(OC[C@H](NC(=O)c1nonc1C1CC1)c1nc2nc(CN3C[C@@H](C(F)(F)F)NC3=O)ccc2[nH]1)C(F)(F)F (relative stereo) [Example 39, 4-Cyclopropyl-N—((R*)-1-(5-(((S*)-2-oxo-4-(trifluoromethyl)imidazolidin-1-yl)methyl)-1H-imidazo[4,5-b]pyridin-2-yl)-2-((1,1,1-trifluoro-2-methylpropan-2-yl)oxy)ethyl)-1,2,5-oxadiazole-3-carboxamide]",> 100 nM,> 100 nM
"Cc1nonc1C(=O)N[C@@H](COC(C)(C)C(F)(F)F)c1nc2cc([C@H](N3CC(F)(F)CNC3=O)C3(C#N)CC3)ccc2[nH]1 (relative stereo) [Example 40, N—((R*)-1-(5-((S*)-(1-Cyanocyclopropyl)(5,5-difluoro-2-oxotetrahydropyrimidin-1(2H)-yl)methyl)-1H-benzo[d]imidazol-2-yl)-2-((1,1,1-trifluoro-2-methylpropan-2-yl)oxy)ethyl)-4-methyl-1,2,5-oxadiazole-3-carboxamide]",> 100 nM,50 to 100 nM
"[2H]C1([2H])[C@H](C(F)(F)F)NC(=O)N1[C@@H](c1ccc2[nH]c([C@H](CC(C)(C)C(F)(F)F)NC(=O)c3nonc3C)nc2c1)C1CC1 (relative stereo) [Example 53, N—((S)-1-(5-((R)-Cyclopropyl((S*)-2-oxo-4-(trifluoromethyl)imidazolidin-1-yl-5,5-d2)methyl)-1H-benzo[d]imidazol-2-yl)-4,4,4-trifluoro-3,3-dimethylbutyl)-4-methyl-1,2,5-oxadiazole-3-carboxamide]",< 50 nM,< 50 nM
"[2H]C1([2H])[C@@H](C(F)(F)F)NC(=O)N1[C@H](COC)c1ccc2[nH]c([C@H](COC(C)(C)C(F)(F)F)NC(=O)c3nonc3C)nc2c1 (relative stereo) [Example 55, N—((R*)-1-(5-((S)-2-methoxy-1-((S*)-2-oxo-4-(trifluoromethyl)imidazolidin-1-yl-5,5-d2)ethyl)-1H-benzo[d]imidazol-2-yl)-2-((1,1,1-trifluoro-2-methylpropan-2-yl)oxy)ethyl)-4-methyl-1,2,5-oxadiazole-3-carboxamide]",< 50 nM,< 50 nM
"Cc1nonc1C(=O)N[C@@H](COC(C)(C)C(F)(F)F)c1nc2cc(CN3C[C@](C)(C(F)(F)F)NC3=O)ccc2[nH]1 (relative stereo) [Example 57, 4-Methyl-N—((R*)-1-(5-(((R*)-4-methyl-2-oxo-4-(trifluoromethyl)imidazolidin-1-yl)methyl)-1H-benzo[d]imidazol-2-yl)-2-((1,1,1-trifluoro-2-methylpropan-2-yl)oxy)ethyl)-1,2,5-oxadiazole-3-carboxamide]",> 100 nM,< 50 nM
"Cc1nonc1C(=O)N[C@@H](COC(C)(C)C(F)(F)F)c1nc2cc(CN3C[C@@](C)(C(F)(F)F)NC3=O)ccc2[nH]1 (relative stereo) [Example 58, 4-Methyl-N—((R*)-1-(5-(((S*)-4-methyl-2-oxo-4-(trifluoromethyl)imidazolidin-1-yl)methyl)-1H-benzo[d]imidazol-2-yl)-2-((1,1,1-trifluoro-2-methylpropan-2-yl)oxy)ethyl)-1,2,5-oxadiazole-3-carboxamide]",< 50 nM,< 50 nM
"[2H]C1([2H])[C@@H](C(F)(F)F)NC(=O)N1[C@H](COC1CC1)c1ccc2[nH]c([C@H](COC(C)(C)C(F)(F)F)NC(=O)c3nonc3C)nc2c1 (relative stereo) [Example 59, N—((R*)-1-(5-((S*)-2-Cyclopropoxy-1-((S*)-2-oxo-4-(trifluoromethyl)imidazolidin-1-yl-5,5-d2)ethyl)-1H-benzo[d]imidazol-2-yl)-2-((1,1,1-trifluoro-2-methylpropan-2-yl)oxy)ethyl)-4-methyl-1,2,5-oxadiazole-3-carboxamide]",< 50 nM,< 50 nM
"CC(C)(OC[C@H](NC(=O)c1nonc1C1CC1)c1nc2cc(CN3C[C@](C)(C(F)(F)F)NC3=O)ccc2[nH]1)C(F)(F)F (relative stereo) [Example 60, 4-Cyclopropyl-N—((R*)-1-(5-(((R*)-4-methyl-2-oxo-4-(trifluoromethyl)imidazolidin-1-yl)methyl)-1H-benzo[d]imidazol-2-yl)-2-((1,1,1-trifluoro-2-methylpropan-2-yl)oxy)ethyl)-1,2,5-oxadiazole-3-carboxamide]",< 50 nM,< 50 nM
"CC(C)(OC[C@H](NC(=O)c1nonc1C1CC1)c1nc2cc(CN3C[C@@](C)(C(F)(F)F)NC3=O)ccc2[nH]1)C(F)(F)F (relative stereo) [Example 61, 4-Cyclopropyl-N—((R*)-1-(5-(((S*)-4-methyl-2-oxo-4-(trifluoromethyl)imidazolidin-1-yl)methyl)-1H-benzo[d]imidazol-2-yl)-2-((1,1,1-trifluoro-2-methylpropan-2-yl)oxy)ethyl)-1,2,5-oxadiazole-3-carboxamide]",< 50 nM,< 50 nM
"Cc1nonc1C(=O)NC(COC(C)(C)C(F)(F)F)c1nc2cc([C@@H](C)N3C[C@@H](C(F)(F)F)NC3=O)ccc2[nH]1 (single isomer, unassigned) [Example 6, 4-Methyl-N—((R*)-1-(5-((R)-1-((S)-2-oxo-4-(trifluoromethyl)imidazolidin-1-yl)ethyl)-1H-benzo[d]imidazol-2-yl)-2-((1,1,1-trifluoro-2-methylpropan-2-yl)oxy)ethyl)-1,2,5-oxadiazole-3-carboxamide]",< 50 nM,< 50 nM
"Cc1nonc1C(=O)NC(c1nc2cc([C@@H](C3CC3)N3C[C@@H](C(F)(F)F)NC3=O)ccc2[nH]1)[C@@H](C)O[C@H](C)C(F)(F)F (single isomer, unassigned) [Example 10, N-((1R*,2R)-1-(5-((R)-Cyclopropyl((S)-2-oxo-4-(trifluoromethyl)imidazolidin-1-yl)methyl)-1H-benzo[d]imidazol-2-yl)-2-(((R)-1,1,1-trifluoropropan-2-yl)oxy)propyl)-4-methyl-1,2,5-oxadiazole-3-carboxamide]",< 50 nM,< 50 nM
"[2H]C1([2H])[C@@H](C(F)(F)F)NC(=O)N1[C@@H](c1ccc2[nH]c([C@@H](NC(=O)c3nonc3C)[C@@H](C)O[C@@H](C)C(F)(F)F)nc2c1)C1CC1 (single isomer, unassigned) [Example 11]",> 100 nM,> 100 nM
"Cc1nonc1C(=O)NC(c1nc2cc([C@@H](C3CC3)N3C[C@@H](C(F)(F)F)NC3=O)ccc2[nH]1)[C@@H](C)O[C@@H](C)C(F)(F)F (single isomer, unassigned) [Example 13, N-((1R*,2R)-1-(5-((R)-Cyclopropyl((S)-2-oxo-4-(trifluoromethyl)imidazolidin-1-yl)methyl)-1H-benzo[d]imidazol-2-yl)-2-(((S)-1,1,1-trifluoropropan-2-yl)oxy)propyl)-4-methyl-1,2,5-oxadiazole-3-carboxamide]",< 50 nM,< 50 nM
